ChEMBL document CHEMBL1144996 (J Med Chem, 2003)

Legend:
Carbonic anhydrase 9 = Carbonic anhydrase 9 (Homo sapiens, UniProt Q16790)
Carbonic anhydrase 1 = Carbonic anhydrase 1 (Homo sapiens, UniProt P00915)
Carbonic anhydrase 2 = Carbonic anhydrase 2 (Homo sapiens, UniProt P00918)

Carbonic anhydrase 1, sequence (P00915 whole entry): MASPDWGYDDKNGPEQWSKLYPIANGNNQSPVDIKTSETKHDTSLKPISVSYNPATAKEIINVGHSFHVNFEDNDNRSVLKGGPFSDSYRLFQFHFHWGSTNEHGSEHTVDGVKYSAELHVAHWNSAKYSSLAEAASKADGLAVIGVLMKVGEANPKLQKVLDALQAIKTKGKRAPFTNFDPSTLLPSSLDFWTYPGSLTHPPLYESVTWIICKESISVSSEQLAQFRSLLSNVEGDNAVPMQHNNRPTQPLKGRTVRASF

Question: Which Ki (Carbonic anhydrase 9) does the source give for `C[C@]12CC[C@@H]3c4ccc(O)cc4CC[C@H]3[C@@H]1CC[C@@H]2OS(N)(=O)=O` here?
Answer: 32 nM

Question: What about the Ki (Carbonic anhydrase 1) of the same molecule?
Answer: 15 nM

Question: What about the Ki (Carbonic anhydrase 2) of the same molecule?
Answer: 13 nM

Question: How did the Ki (Carbonic anhydrase 9) turn out when `C[C@]12CC[C@@H]3c4ccc(OS(N)(=O)=O)cc4CC[C@H]3[C@@H]1CC[C@@H]2OS(N)(=O)=O` was run?
Answer: 58 nM

Question: And the Ki (Carbonic anhydrase 1)?
Answer: 6 nM

Question: And the Ki (Carbonic anhydrase 2)?
Answer: 5 nM

Question: How did the Ki (Carbonic anhydrase 9) turn out when `NS(=O)(=O)Oc1ccc([N+](=O)[O-])cc1` was run?
Answer: 36 nM

Question: And the Ki (Carbonic anhydrase 1)?
Answer: 40 nM

Question: What about the Ki (Carbonic anhydrase 2) of the same molecule?
Answer: 1.5 nM

Question: What does the source list for `NS(=O)(=O)Oc1ccc(Cl)cc1`?
Answer: Ki (Carbonic anhydrase 9): 18 nM; Ki (Carbonic anhydrase 1): 4.6 nM

Question: For `N#Cc1ccc(OS(N)(=O)=O)cc1`, which Ki (Carbonic anhydrase 9) is on record?
Answer: 41 nM

Question: What about the Ki (Carbonic anhydrase 1) of the same molecule?
Answer: 480 nM

Question: And the Ki (Carbonic anhydrase 2)?
Answer: 149 nM

Question: For `NS(=O)(=O)Oc1ccc(I)cc1`, which Ki (Carbonic anhydrase 9) is on record?
Answer: 23 nM

Question: And the Ki (Carbonic anhydrase 1)?
Answer: 9.5 nM

Question: And the Ki (Carbonic anhydrase 2)?
Answer: 3.8 nM

Question: Which results are given for `Cc1ccc(OS(N)(=O)=O)cc1`?
Answer: Ki (Carbonic anhydrase 9): 59 nM; Ki (Carbonic anhydrase 1): 3.8 nM; Ki (Carbonic anhydrase 2): 1.9 nM

Question: Which Ki (Carbonic anhydrase 9) does the source give for `NS(=O)(=O)Oc1ccc(Br)cc1` here?
Answer: 19 nM

Question: What about the Ki (Carbonic anhydrase 1) of the same molecule?
Answer: 7.3 nM

Question: Which Ki (Carbonic anhydrase 9) does the source give for `CC1(C)OCC(C2OC3OC(C)(C)OC3[C@H]2OS(N)(=O)=O)O1` (some centres not stated) here?
Answer: 39 nM

Question: And the Ki (Carbonic anhydrase 1)?
Answer: 278 nM

Question: What about the Ki (Carbonic anhydrase 2) of the same molecule?
Answer: 15 nM

Question: Which results are given for `NS(=O)(=O)Oc1c(Cl)cc(Cl)cc1Cl`?
Answer: Ki (Carbonic anhydrase 9): 37 nM; Ki (Carbonic anhydrase 1): 454 nM; Ki (Carbonic anhydrase 2): 138 nM

Question: `NS(=O)(=O)Oc1ccc(-c2ccccc2)cc1` was tested. Which Ki (Carbonic anhydrase 9) did it give?
Answer: 50 nM

Question: And the Ki (Carbonic anhydrase 1)?
Answer: 113 nM

Question: And the Ki (Carbonic anhydrase 2)?
Answer: 95 nM

Question: With `NS(=O)(=O)OCCOc1ccc(-n2ccnc2)cc1` as the molecule, how does the Ki (Carbonic anhydrase 9) read?
Answer: 26 nM

Question: And the Ki (Carbonic anhydrase 1)?
Answer: 28 nM

Question: And the Ki (Carbonic anhydrase 2)?
Answer: 23 nM

Question: `CC(=O)Nc1ccc(OS(N)(=O)=O)cc1` was tested. Which Ki (Carbonic anhydrase 9) did it give?
Answer: 45 nM

Question: And the Ki (Carbonic anhydrase 1)?
Answer: 37 nM

Question: And the Ki (Carbonic anhydrase 2)?
Answer: 18 nM

Question: Which Ki (Carbonic anhydrase 9) does the source give for `NS(=O)(=O)Oc1ccc(Oc2ccccc2)cc1` here?
Answer: 51 nM

Question: And the Ki (Carbonic anhydrase 1)?
Answer: 115 nM

Question: What about the Ki (Carbonic anhydrase 2) of the same molecule?
Answer: 98 nM

Question: How did the Ki (Carbonic anhydrase 1) turn out when `CC(C)(C)c1ccc(OS(N)(=O)=O)cc1` was run?
Answer: 43 nM

Question: And the Ki (Carbonic anhydrase 2)?
Answer: 2.9 nM

Question: What does the source list for `C[C@]12CCC(OS(N)(=O)=O)CC1=CCC1C2CC[C@]2(C)C(=O)CCC12` (some centres not stated)?
Answer: Ki (Carbonic anhydrase 9): 44 nM; Ki (Carbonic anhydrase 1): 31 nM; Ki (Carbonic anhydrase 2): 27 nM

Question: `CC1(C)O[C@@H]2[C@H](O1)[C@H]1OC(C)(C)OC1O[C@@H]2COS(N)(=O)=O` (some centres not stated) was tested. Which Ki (Carbonic anhydrase 9) did it give?
Answer: 32 nM

Question: What about the Ki (Carbonic anhydrase 1) of the same molecule?
Answer: 315 nM

Question: And the Ki (Carbonic anhydrase 2)?
Answer: 29 nM

Question: Which results are given for `COc1ccc(OS(N)(=O)=O)cc1`?
Answer: Ki (Carbonic anhydrase 9): 34 nM; Ki (Carbonic anhydrase 1): 33 nM; Ki (Carbonic anhydrase 2): 1.6 nM

Question: `C[C@]12CC[C@@H]3c4ccc(OS(N)(=O)=O)cc4CC[C@H]3[C@@H]1CCC2=O` [EMATE] was tested. Which Ki (Carbonic anhydrase 1) did it give?
Answer: 37 nM

Question: Which results are given for `NS(=O)(=O)Oc1ccccc1` [PHENYLSULFAMATE]?
Answer: Ki (Carbonic anhydrase 9): 63 nM; Ki (Carbonic anhydrase 1): 2.1 nM

Question: Which results are given for `NS(=O)(=O)Oc1c(Cl)c(Cl)c(Cl)c(Cl)c1Cl` [SULFAMIC ACID PENTACHLOROPHENYL ESTER]?
Answer: Ki (Carbonic anhydrase 9): 39 nM; Ki (Carbonic anhydrase 1): 432 nM; Ki (Carbonic anhydrase 2): 125 nM
